Reference: patent US10548912B2, “Dosage regimen for a tiacumicin compound” (Astellas Pharma Europe Ltd., priority 2015, dated 2020)
Like-named read-outs stand apart in the source and are kept apart here.

Columns and labels:
[1] = test system: Clostridium difficile (C. diff) toxins A and B; assay: Detection of C. difficile toxins A and B in human faecal samples by ELISA (EXTEND samples); assay type: in vivo
Experimental: The detection of Clostridium difficile (C. diff) toxins A and B in human faecal samples was performed by ELISA. The samples to be analysed originated from clinical study 2819-MA-1002 (EXTEND).
The samples were sent to LGC (Analytical lab in Fordham, Cambridgeshire, UK) packed in dry ice and upon receipt stored in a freezer (nominally −80° C.). For each patient a stool sample was collected at Day 0 (screening) and also in case of disease recurrence or an unscheduled visit. For subjects participating in the Microbiome sub-study stool samples were collected at: Day 0 (screening), Day 5, Day 12, Day 27, Day 40, Day 55 and in the case of disease recurrence or an unscheduled visit. A total of 596 faecal samples were collected during the study.
C. difficile toxins A and B in human faecal samples were detected using TECHLAB C. difficile Tox A/B II ELISA kits (Product Number T5015).
The assay readout is the spectrophotometric dual wavelength optical density (OD) read at 450 nm and referenced at 620 nm and expressed in Absorbance Units (AU). All samples were measured in duplicate. The presence (+) or absence (−) of toxin was reported together with the mean OD.
The acceptability of each batch of test samples was dependent on the data from the QC samples fulfilling the acceptance criteria outlined below in Table 5, in that all positive QCs remain above the cut off value of >0.080 OD and negative QCs remain ≤0.080 OD. All batches contained 2 separate sets of QC samples which were measured in duplicate. The precision was calculated between the OD of replicates of each set using the coefficient of variation (CV) which should be <20%.

[2] = test system: Clostridium difficile infection; conditions: Louie 2011; 200 mg Fidaxomicin twice daily or vancomycin 125 mg four times daily orally for 10 days; cited from earlier work
[3] = test system: Clostridium difficile infections (CDI); conditions: following a vancomycin taper; cited from earlier work
[4] = test system: Clostridium difficile infection; conditions: Cornely 2012; 200 mg Fidaxomicin twice daily or vancomycin 125 mg four times daily orally for 10 days; cited from earlier work
[5] = test system: Clostridium difficile infection; assay: Phase IIIb/IV randomized open-label EXTEND study (2819-MA-1002): extended fidaxomicin vs standard vancomycin; assay type: in vivo, human
Experimental: Fidaxomicin (FDX) is believed to reduce recurrence primarily through minimal collateral damage to colonic microflora. […] Subjects will receive 200 mg twice daily (b.i.d.) for 5 days from Day 1 to Day 5. From Day 6 to Day 25, subjects will receive 200 mg once daily on alternate days (first alternate day dose given on Day 7). This extension of the dose will allow a longer period for the protective microflora to recover and extend the period of time over which Clostridium difficile cells are suppressed, and kill any dormant spores that germinate. The extension of the dose also targets the early recurrence period documented in the phase 3 studies—the first 15 days after the end of therapy during which the majority of recurrences occurred. By covering this period this revised dosing regimen may reduce the recurrence to <10%, preferably to <5% and even more preferred to <3%. The impact on the gut microflora was limited supporting the rationale for this study.
The dosing of vancomycin (Vancocin™) to be administered in this study is in line with the SmPC for Vancocin. Subjects will receive 125 mg four times daily (q.i.d.) for 10 days from Day 1 to Day 10.
The dosage regimen was as described in Table 1 of Example 1.

[6] = test system: CDI; conditions: Phase III studies, mITT analysis; cited from earlier work
[7] = Sub-study visit day 5, n = 20 per arm
[8] = Sub-study visit day 12, n = 20 per arm
[9] = Sub-study visit day 27, n = 20 Fidaxomicin, 17 Vancomycin
[10] = Day 55, extended fidaxomicin or standard vancomycin
[11] = Table 7, extended fidaxomicin regimen of Example 1 or standard vancomycin
[12] = extended fidaxomicin Day 55, standard vancomycin Day 40

For `CN[C@H](CC(C)C)C(=O)N[C@H]1C(=O)N[C@@H](CC(N)=O)C(=O)N[C@H]2C(=O)N[C@H]3C(=O)N[C@H](C(=O)N[C@H](C(=O)O)c4cc(O)cc(O)c4-c4cc3ccc4O)[C@H](O)c3ccc(c(Cl)c3)Oc3cc2cc(c3O[C@@H]2O[C@H](CO)[C@@H](O)[C@H](O)[C@H]2O[C@H]2C[C@](C)(N)[C@H](O)[C@H](C)O2)Oc2ccc(cc2Cl)[C@H]1O` [vancomycin], the “CDI toxin in faecal stool samples, Negative (%)” value (“CDI toxin … Negative (%)” below) [1, 7] was “(75%)”, the “CDI toxin in faecal stool samples, Negative (number of subjects)” value (from here on “CDI toxin … Negative (number of subjects)”) [1, 7] was 15 and the “CDI toxin in faecal stool samples, Positive (%)” value [1, 7] was “(25.0%)”. The “CDI toxin in faecal stool samples, Positive (number of subjects)” value (“CDI toxin … Positive (number of subjects)” below) [1, 7] was 5, the “CDI toxin … Negative (%)” value [1, 8] was “(100.0%)” and the “CDI toxin … Negative (number of subjects)” value [1, 8] was 20. The “CDI toxin … Positive (number of subjects)” value [1, 8] was 0, the “CDI toxin … Negative (%)” value [1, 9] was “(82.4%)” and the “CDI toxin … Negative (number of subjects)” value [1, 9] was 14. For the same molecule, the “CDI toxin in faecal stool samples, Positive (%)” value [1, 9] was “(17.6%)”, the “CDI toxin … Positive (number of subjects)” value [1, 9] was 3 and the “Recurrence 30 days after end of treatment (%)” value (shortened to “Recurrence 30 days … (%)”) [2] was 25.3%. For the same molecule, the “Recurrence 30 days after end of treatment (patients/N)” value (“Recurrence 30 days … (patients/N)” below) [2] was 67/265, the “Sustained clinical cure 30 days after end of treatment (patients/N)” value [2] was 198/309 and the “Average symptom-free interval (SFI)” value [3] was 37 days. The “Recurrence 30 days … (%)” value [4] was 26.9%, the “Recurrence 30 days … (patients/N)” value [4] was 60/223 and the “Sustained clinical cure 30 days after end of treatment (patients/N)” value [4] was 163/257. The “% of patients with <3 Unformed bowel movements per day (UBM)” value ([5]; Day 1) was 21.1%, the “% of patients with ≥3 Unformed bowel movements per day (UBM)” value ([5]; Day 1) was 78.9% and the “% of patients with <3 Unformed bowel movements per day (UBM)” value ([5]; Day 2) was 40.6%. For the same molecule, the “% of patients with ≥3 Unformed bowel movements per day (UBM)” value ([5]; Day 2) was 59.4%, the “% of patients with <3 Unformed bowel movements per day (UBM)” value ([5]; Day 3) was 59.6% and the “% of patients with ≥3 Unformed bowel movements per day (UBM)” value ([5]; Day 3) was 40.4%. For the same molecule, the “% of patients with <3 Unformed bowel movements per day (UBM)” value ([5]; Day 4) was 72.0%, the “% of patients with ≥3 Unformed bowel movements per day (UBM)” value ([5]; Day 4) was 28.0% and the “% of patients with <3 Unformed bowel movements per day (UBM)” value ([5]; Day 5) was 81.4%. For the same molecule, the “% of patients with ≥3 Unformed bowel movements per day (UBM)” value ([5]; Day 5) was 18.6%, the “% of patients with <3 Unformed bowel movements per day (UBM)” value ([5]; Day 6) was 80.6% and the “% of patients with ≥3 Unformed bowel movements per day (UBM)” value ([5]; Day 6) was 19.4%. The “% of patients with <3 Unformed bowel movements per day (UBM)” value ([5]; Day 7) was 85.5%, the “% of patients with ≥3 Unformed bowel movements per day (UBM)” value ([5]; Day 7) was 14.5% and the “% of patients with <3 Unformed bowel movements per day (UBM)” value ([5]; Day 8) was 86.8%. The “% of patients with ≥3 Unformed bowel movements per day (UBM)” value ([5]; Day 8) was 13.2%, the “% of patients with <3 Unformed bowel movements per day (UBM)” value ([5]; Day 9) was 88.1% and the “% of patients with ≥3 Unformed bowel movements per day (UBM)” value ([5]; Day 9) was 11.9%. The “% of patients with <3 Unformed bowel movements per day (UBM)” value ([5]; Day 10) was 89.9%, the “% of patients with ≥3 Unformed bowel movements per day (UBM)” value ([5]; Day 10) was 10.1% and the “% of patients with <3 Unformed bowel movements per day (UBM)” value ([5]; Day 11) was 91.5%. For the same molecule, the “% of patients with ≥3 Unformed bowel movements per day (UBM)” value ([5]; Day 11) was 8.5%, the “% of patients with <3 Unformed bowel movements per day (UBM)” value ([5]; Day 12) was 94.7% and the “% of patients with ≥3 Unformed bowel movements per day (UBM)” value ([5]; Day 12) was 5.3%. For the same molecule, the “% of patients with <3 Unformed bowel movements per day (UBM)” value ([5]; Day 13) was 84.4%, the “% of patients with ≥3 Unformed bowel movements per day (UBM)” value ([5]; Day 13) was 15.6% and the “Recurrence of CDI (%) at visit 5 (Day 55)” value [5, 10] was 16.1%. For the same molecule, the “Recurrence of CDI at visit 5 (Day 55) (patients/N)” value [5, 10] was 26/161, the “Recurrence of CDI at visit 5 (Day 55) (patients/N)” value ([5]; Day 55, extended fidaxomicin or standard vancomycin, listed as VAN) was 15/94 and the “Recurrence 30 days … (%)” value [5, 11] was 16.1%. The “Recurrence 30 days … (patients/N)” value [5, 11] was 26/161, the “Sustained clinical cure (%) at 30 days after end of treatment” value [5, 12] was 62.9% and the “Sustained clinical cure at 30 days after end of treatment (patients/N)” value [5, 12] was 105/167. The “Sustained clinical cure (%) at 30 days after end of treatment” value ([5]; extended fidaxomicin Day 55, standard vancomycin Day 40, listed as VAN) was 62.9% and the “Recurrence of CDI” value [6] was 26%.
